Measurements taken from patent EP0168733A2, “Process for the preparation of quinolinone and naphthyridoncarboxylic acids” (BAYER AG, priority 1984, dated 1986).
Converted amounts (≈) assume the structure as drawn.

Columns and labels:
Assay in all cases: Agar dilution test (Isosensitest medium / Denley multipoint inoculator), MIC
Format in all cases: cell-based
E. coli Neum. = conditions: Escherichia coli, read-out: Minimale Hemmkonzentration
Text: (§1) In der nachstehenden Tabelle sind die MHK-Werte einiger der erfindungsgemäßen Verbindungen angegeben.

E. coli T 7 = conditions: Escherichia coli, T7, read-out: Minimale Hemmkonzentration
Text: as §1

Klebsiella pneum. 63 = conditions: read-out: Minimale Hemmkonzentration
Text: as §1

Klebsiella pneum. 8085 = conditions: read-out: Minimale Hemmkonzentration
Text: as §1

Proteus morg. 932 = conditions: read-out: Minimale Hemmkonzentration
Text: as §1

Proteus vulg. 1017 = conditions: read-out: Minimale Hemmkonzentration
Text: as §1

Staphylococcus aur. 133 = conditions: read-out: Minimale Hemmkonzentration
Text: as §1

Compound | MIC (E. coli Neum.) | MIC (E. coli T 7) | MIC (Klebsiella pneum. 63) | MIC (Klebsiella pneum. 8085) | MIC (Proteus morg. 932) | MIC (Proteus vulg. 1017) | MIC (Staphylococcus aur. 133)
O=C(O)c1cn(C2CC2)c2cc([N+](=O)[O-])c(Cl)cc2c1=O [Beispiel 1, 6-Chlor-1-cyclopropyl-7-nitro-1,4-dihydro-4-oxo-3-chinolincarbonsäure] | 32 µg/mL (≈ 104 µM) | 64 µg/mL (≈ 207 µM) | > 128 µg/mL | 32 µg/mL (≈ 104 µM) | > 128 µg/mL | > 128 µg/mL | > 128 µg/mL
CN(C)n1cc(C(=O)O)c(=O)c2ccccc21 [Beispiel 4, 1-Dimethylamino-1,4-dihydro-4-oxo-3-chinolincarbonsäure] | 32 µg/mL (≈ 138 µM) | 64 µg/mL (≈ 276 µM) | > 128 µg/mL | 64 µg/mL (≈ 276 µM) | 128 µg/mL (≈ 551 µM) | 128 µg/mL (≈ 551 µM) | > 128 µg/mL
O=C(O)c1cn(C2CC2)c2cccc([N+](=O)[O-])c2c1=O [Beispiel 6, 1-Cyclopropyl-5-nitro-1,4-dihydro-4-oxo-3-chinolincarbonsäure] | 32 µg/mL (≈ 117 µM) | 32 µg/mL (≈ 117 µM) | 128 µg/mL (≈ 467 µM) | 128 µg/mL (≈ 467 µM) | 64 µg/mL (≈ 233 µM) | 64 µg/mL (≈ 233 µM) | > 128 µg/mL
O=C(O)c1cn(C2CC2)c2cc([N+](=O)[O-])ccc2c1=O [Beispiel 7, 1-Cyclopropyl-7-nitro-1,4-dihydro-4-oxo-3-chinolincarbonsäure] |  |  | 0.5 µg/mL (≈ 1.82 µM) | 0.06 µg/mL (≈ 0.219 µM) | 0.25 µg/mL (≈ 0.912 µM) | 0.25 µg/mL (≈ 0.912 µM) | 32 µg/mL (≈ 117 µM)
